Measurements taken from patent publication US20080051463A1, “ANTHRACENE COMPOUNDS AND THEIR USE FOR TREATING BENIGN AND MALIGNANT TUMOR DISORDERS” (AETERNA ZENTARIS GmbH, priority 2006, published 2008).
Converted amounts (≈) assume the structure as drawn. “And” between values parts separate entries of the source, which are not always exact repeats. Equal entries are not always repeated.

Assays:
[1] = test system: ovarian adenocarcinoma cell line SKOV-3; assay: Proliferation test (cellular dehydrogenase activity), SK-OV-3; format: cell-based; conditions: Homo sapiens
From the text: (§1) The antiproliferative activity of the compounds 1, 2, 4, 6, 7, 9, 10, 11, 12 and 13 according to the invention was investigated in a proliferation test performed on established tumor cell lines (D. A. Scuderio et al. Cancer Res. 1988, 48: 4827-4833).
(§2) The test used determines the cellular dehydrogenase activity and makes it possible to determine cell viability and determine cell number indirectly.
(§3) The cell lines used are the human cervical carcinoma cell line KB/HeLa (ATCC CCL17), the ovarian adenocarcinoma cell line SKOV-3 (ATCC HTB77), the human glioblastoma cell line SF-268 (NCI-503138) and the lung carcinoma cell line NCI-H460 (NCI-503473). In addition, an RKOp27 cell system was used for investigating the cell cycle-specific effect of the substance (M. Schmidt et al. Oncogene 2000, 19(20): 2423-9).

[2] = molecular target: T1, complete recombinant KIF5A (Homo sapiens, UniProt Q12840); assay: Inhibition of KIF5A ATPase activity (end-point assay); format: biochemical; conditions: microtubulus-activatable ATPase
T1 construct: Here, use was made of complete recombinant KIF5A
T1 sequence (Q12840 1-1032): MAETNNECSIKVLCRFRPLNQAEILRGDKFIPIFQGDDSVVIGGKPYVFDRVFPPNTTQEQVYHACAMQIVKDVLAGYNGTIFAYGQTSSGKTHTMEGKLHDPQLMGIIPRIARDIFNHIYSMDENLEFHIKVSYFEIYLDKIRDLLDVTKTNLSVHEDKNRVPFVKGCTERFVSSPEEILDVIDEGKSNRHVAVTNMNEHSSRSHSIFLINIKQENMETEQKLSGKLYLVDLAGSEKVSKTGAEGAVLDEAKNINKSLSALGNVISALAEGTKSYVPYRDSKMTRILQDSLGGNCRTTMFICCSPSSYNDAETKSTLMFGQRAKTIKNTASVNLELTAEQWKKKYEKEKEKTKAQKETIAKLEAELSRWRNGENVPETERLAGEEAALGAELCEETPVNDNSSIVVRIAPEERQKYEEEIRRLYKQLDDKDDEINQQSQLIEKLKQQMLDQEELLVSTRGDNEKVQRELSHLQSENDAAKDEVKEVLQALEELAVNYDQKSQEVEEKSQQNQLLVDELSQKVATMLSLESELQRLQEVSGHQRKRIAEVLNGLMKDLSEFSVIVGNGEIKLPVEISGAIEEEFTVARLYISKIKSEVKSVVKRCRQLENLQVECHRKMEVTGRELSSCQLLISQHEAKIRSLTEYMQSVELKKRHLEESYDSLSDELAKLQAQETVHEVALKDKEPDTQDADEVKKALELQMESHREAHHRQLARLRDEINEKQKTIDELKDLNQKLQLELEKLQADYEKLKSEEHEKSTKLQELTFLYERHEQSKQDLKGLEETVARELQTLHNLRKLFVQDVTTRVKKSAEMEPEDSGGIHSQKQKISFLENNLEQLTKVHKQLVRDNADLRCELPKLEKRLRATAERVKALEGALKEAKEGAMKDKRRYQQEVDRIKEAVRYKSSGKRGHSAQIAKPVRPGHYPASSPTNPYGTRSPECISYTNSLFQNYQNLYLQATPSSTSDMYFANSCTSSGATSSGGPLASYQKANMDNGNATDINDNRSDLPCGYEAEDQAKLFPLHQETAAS
Procedure: In an in vitro test, compound 1 was examined for inhibition of KIF5A ATPase activity. Here, use was made of complete recombinant KIF5A (Niclas J, Navone F, Hom-Booher N, Vale R D Neuron 1994, 12:1059-1072).
The activity of the microtubulus-activatable ATPase was determined by end-point assay. For tubulin isolation and preparation of the microtubuli see citations in Example II) b).
Table 6 states the EC50 value of the ATPase inhibition of KIF5A by compound 1 according to the invention.

Eg513-437 = molecular target: T2, Eg513-437 (Homo sapiens, UniProt P52732); assay: Inhibition of kinesin Eg5 activity, recombinant Eg513-437; format: biochemical; conditions: recombinant Eg513-437 (Table 4)
T2 construct: read as Eg5 residues 13-437
T2 sequence (P52732 1-1056): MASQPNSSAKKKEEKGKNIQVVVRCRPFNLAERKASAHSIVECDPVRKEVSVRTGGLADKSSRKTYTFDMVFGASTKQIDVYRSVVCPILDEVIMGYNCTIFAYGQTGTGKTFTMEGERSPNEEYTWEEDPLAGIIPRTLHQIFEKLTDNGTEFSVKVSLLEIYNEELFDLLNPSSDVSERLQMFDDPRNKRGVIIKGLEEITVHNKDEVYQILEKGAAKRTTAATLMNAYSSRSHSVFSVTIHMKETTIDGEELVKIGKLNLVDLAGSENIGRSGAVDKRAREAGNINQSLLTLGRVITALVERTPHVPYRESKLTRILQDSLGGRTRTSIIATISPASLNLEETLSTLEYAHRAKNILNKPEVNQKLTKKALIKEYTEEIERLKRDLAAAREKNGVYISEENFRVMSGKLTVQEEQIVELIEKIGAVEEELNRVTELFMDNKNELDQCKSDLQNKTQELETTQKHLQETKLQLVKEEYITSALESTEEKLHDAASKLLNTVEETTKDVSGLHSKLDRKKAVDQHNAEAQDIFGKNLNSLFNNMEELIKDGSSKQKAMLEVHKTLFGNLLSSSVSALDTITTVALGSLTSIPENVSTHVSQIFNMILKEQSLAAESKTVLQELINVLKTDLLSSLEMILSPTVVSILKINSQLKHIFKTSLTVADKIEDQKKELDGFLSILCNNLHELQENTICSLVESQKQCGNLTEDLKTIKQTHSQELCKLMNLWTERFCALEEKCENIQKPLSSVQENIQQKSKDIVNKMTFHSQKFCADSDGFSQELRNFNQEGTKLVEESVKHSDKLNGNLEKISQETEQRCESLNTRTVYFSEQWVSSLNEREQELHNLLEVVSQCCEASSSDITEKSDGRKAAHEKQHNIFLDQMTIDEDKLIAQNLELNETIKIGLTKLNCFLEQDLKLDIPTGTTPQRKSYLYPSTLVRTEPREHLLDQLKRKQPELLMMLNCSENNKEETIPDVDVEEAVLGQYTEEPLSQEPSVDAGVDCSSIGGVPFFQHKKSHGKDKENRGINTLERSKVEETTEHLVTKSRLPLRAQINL
From the text: In an in vitro test, compound 1 was examined for inhibition of Eg5 activity [Kodama, T. et al. J. Biochem. 99: 1465-1472 (1986)].
Here, the recombinant kinesins Eg513-437 (Table 3) and Eg51-406 (Table 4) were used.
Tables 4 and 5 state the EC50 values of Eg5 inhibition for the compound 1 according to the invention.

[3] = test system: human cervical carcinoma cell line KB/HeLa; assay: Proliferation test (cellular dehydrogenase activity), KB/HeLa; format: cell-based
From the text: as §1, §2, §3

[4] = test system: human glioblastoma cell line SF-268; assay: Proliferation test (cellular dehydrogenase activity), SF-268; format: cell-based
From the text: as §1, §2, §3

O=C(C=C1c2ccccc2C(=O)c2ccccc21)c1ccc(O)c(O)c1 [Compound 1, 10-[2-(3,4-dihydroxy-phenyl)-2-oxo-ethylidene]-10H-anthracen-9-one]
EC50 [1]: 0.053 µg/mL (≈ 0.155 µM)
EC50 [2]: 61.9 µM
EC50 (Eg513-437): 6.92 µM and 7.24 µM and 5.46 µM and 5.9 µM
EC50 [3]: 0.091 µg/mL (≈ 0.266 µM)
EC50 [4]: 0.076 µg/mL (≈ 0.222 µM)
